Test results as given in patent US10975123B2, “Mutant Akt-specific capture agents, compositions, and methods of using and making” (California Institute of Technology, priority 2014, dated 2021).
Where a SMILES comes first, the peptide text is derived from it. Bridges are numbered along the chain shown (N, C = ends). Roman numbers before positions name the chains, in order. Primed or numbered codes have the meaning given here. Triazole bridges read from a SMILES are 1,4-linked. Where no end group is shown, it is not given here. [ ]: non-standard residue; d: D form. The star is where a group is joined. Biotin = O=C1N[C@H]2[C@H](CS[C@H]2CCCCC(=O)*)N1; Lys(N3) = [N-]=[N+]=NCCCC[C@H](N)C(=O)O; PEG6 = NCCOCCOCCOCCOCCOCCOCCC(=O)O; dPra = C#CC[C@@H](N)C(=O)O; PEG5′ = PEG5 linker

Columns and labels:
[1] = target: T1, E17K GST-PH Domain (E17K Akt1) (Homo sapiens, UniProt P31749, E17K); test: Full curve ELISA, immobilized ligand, E17K protein; assay type: binding
T1 construct: The first 124 N-terminal amino acids from full length Akt1 were used as the PH Domain DNA; GST (N); thrombin cleavage site (C); 6His (C); made in house; host or cells: E. coli BL21-DE3-pLys
T1 sequence (P31749 1-124 E17K): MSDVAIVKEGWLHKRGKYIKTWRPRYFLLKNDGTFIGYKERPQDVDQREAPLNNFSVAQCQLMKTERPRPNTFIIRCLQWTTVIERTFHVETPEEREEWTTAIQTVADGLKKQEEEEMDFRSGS
Experimental: The full curve ELISAs were obtained using streptavidin coated ELISA plates (Pierce). The ligands—anchor, biligand, triligand and “eflya” scrambled anchor peptide blank—were laid down at a concentration of 1 μM for one hour. Two lanes of each ligand were used on the plate for both proteins—WT and E17K GST-PH Domain. The plates were blocked with 5% BSA for two hours. Dilutions of both WT and E17K GST-PH Domain proteins were made in 0.5% BSA in 1×TBS starting from 1 μM-0.5 nM by serially diluting 1:2 down a series of 8 samples. For each ligand, a no protein blank was also used. The proteins were incubated with the blocked plate for one hour, washed 3× with 1×TBST+0.5% BSA and tapped dry, then detected with a 1:10,000 dilution of an HRP conjugated anti-GST pAb. The plate was again washed 3× with 1×TBST and tapped dry. It was developed with a 1:1 solution of TMB substrate and development was stopped with 1M H2SO4 and read on a plate reader.

[2] = target: T2, E17K PH Domain binding to PIP3 (Homo sapiens, UniProt P31749, E17K); test: PIP3 agarose inhibition assay, E17K; assay type: biochemical; settings: in words; for inhibition of E17K PH Domain binding to PIP3-coated resin: ligand 2.38 μM (10x protein), protein 234 nM, western blot; for inhibition of E17K PH Domain binding to PIP3 resin, expanded assay: triligand 0.1-1000 eq relative to protein (234 nM)
T2 construct: 2 μg of either wildtype or mutant PH Domain-GFP protein (234 nM); made in house; host or cells: HEK-293-6E (used as cell lysate, not purified)
T2 sequence (P31749 5-108 E17K limits assumed): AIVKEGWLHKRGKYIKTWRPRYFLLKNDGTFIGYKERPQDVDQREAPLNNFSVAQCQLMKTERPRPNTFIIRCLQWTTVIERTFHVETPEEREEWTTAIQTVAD
Source text: (§1) The yleaf ligand, the biligand, and the triligand were all tested for their ability to block the E17K PHD binding with PIP3. For this test, PIP3-coated resin (Echelon Biosciences) was used to mimic the PHD interaction with the cell membrane, and could be used to bind the protein as in an immunoprecipitation assay^22. The presence of an effective blocking compound would reduce the ability of the resin to capture the protein, and would thus appear as a diminished signal in the corresponding western blot assay. A control lane containing no capture agent was used to show baseline binding of the protein to the PIP3 resin. […] In an expanded study, we compared the amount of E17K and WT PH domain binding relative to the amount of added triligand (FIG. 5e).
PIP3 Agarose beads (Echelon) were used to detect for the inhibition of PH Domain binding to its substrate, PIP3, upon incubation with the anchor candidate peptide ligands. To test the inhibition of each of the ligands, anchor biligand and triligand, 20 μL of resin slurry was added to each of four tubes and washed three times with 1×TBS. Protein, 2 μg (234 nM) of E17K mutant, was preincubated for one hour at room temperature with either DMSO (no protein blank), anchor, biligand or triligand at 2.38 μM (10× in relation to protein) in 200 μL of 1×TBS. For the control, mutant PH Domain was incubated with 1×TBS and 1 μL […] to mimic the ligand conditions. These protein samples were then added to PIP3 agarose in a Spin-X tube and incubated at room temperature for two hours. The resin was washed three times with 1×TBS with 0.25% IGEPAL CA-630, spun out to dry completely, then denatured with 50 μL 3×SDS gel loading buffer for 10 min at 95° C. The gel loading buffer was spun out of the resin and detected via western blot as per the Streptavidin-Agarose Pulldowns. Inhibition was indicated by a decrease in the amount of PH Domain that was pulled down by the resin.
(§2) Expanded inhibition blots with either WT of E17K mutant protein were performed in a similar fashion. Twelve tubes of 20 μL of PIP3 agarose were washed three times with 1×TBS. 2 μg of either wildtype or mutant PH Domain-GFP protein (234 nM) in 200 uL 1×TBS were preincubated for 30 minutes with differing concentrations of triligand: 0.1 eq (23.4 nM), 1 eq (234 nM), 10 eq (2.34 μM), 100 eq (23.4 μM), and 1000 eq (234 μM). The protein and triligand solutions were then incubated with the PIP3 resin for 2 hours at room temperature. The resins were washed, eluted, and blotted as per all PH Domain western blots.

[3] = system: E17K Akt1 relative to E17K Akt2; test: Point ELISA for triligand binding to Akt1 and Akt2 wildtype and E17K mutant; settings: protein 100 nM, immobilized triligand, in words
Experimental: These assays were conducted to test the binding of the triligand to the off-target Akt2 wildtype and mutant proteins. For this assay, all samples were taken in triplicate for statistical purposes. Triligand peptide was first immobilized onto neutravdin ELISA plates (Pierce) for one hour. A scrambled anchor peptide, eflya, was used as the no-ligand blank, as the GST proteins has significant background binding to a blank neutravidin plate. The plates were then blocked with 5% BSA overnight. Protein was laid down at a concentration of 100 nM for samples wells and the blank, scrambled peptide wells. GST protein alone (Abcam) was also incubated with the triligand and scrambled peptide as a control. The proteins were incubated for one hour, then washed three times with 1×TBST. The protein was then detected with 1:10,000 anti-GST mouse mAb (Fisher, #MA4-004) for one hour, washed three times with 1×TBST and developed with a 1:1 mixture of TMB substrate for ten minutes. The samples were plotted by subtracting the blanks and averaging the sample wells. The highest signal was considered 100% binding, and the other samples were normalized accordingly.

[4] = target: T3, WT PH Domain binding to PIP3 (Homo sapiens, UniProt P31749); test: PIP3 agarose inhibition assay, WT; assay type: biochemical; settings: triligand 0.1-1000 eq relative to protein (234 nM), in words
T3 construct: 2 μg of either wildtype or mutant PH Domain-GFP protein (234 nM); made in house; host or cells: HEK-293-6E (used as cell lysate, not purified)
T3 sequence (P31749 5-108 limits assumed): as the sequence (P31749 5-108 E17K limits assumed) above, with K13E counted along it
Source text: as §1, §2

selectivity for E17K Akt1 relative to WT Akt1 (ELISA) ([1]; in words)	EC50 ([1]; ligand immobilized at 1 μM on streptavidin plate, Hill fit with common saturation and slope, read-out: EC50 for the E17K Akt1 from ELISA binding curves)	inhibition of WT PH Domain binding to PIP3 resin, expanded assay [4]	Compound	change in binding affinity for the E17K protein versus the preceding ligand (ELISA) ([1]; in words)	selectivity for E17K Akt1 relative to WT Akt1 (ELISA) ([1]; in words, listed as ivdae)	inhibition of E17K PH Domain binding to PIP3-coated resin [2]	inhibition of E17K PH Domain binding to PIP3 resin, expanded assay [2]	preference for E17K Akt1 relative to E17K Akt2 [3]
largely recovered	45 nM	–	CC[C@@H](C)[C@@H](NC(=O)CCOCCOCCOCCOCCOCCOCCNC(=O)CCCC[C@@H]1SC[C@@H]2NC(=O)N[C@@H]21)C(=O)N[C@@H](C(=O)N[C@H](CC(=O)O)C(=O)N[C@H](C)C(=O)N[C@H](CCC(=O)O)C(=O)N[C@H](Cc1cn(CCCC[C@H](NC(C)=O)C(=O)N[C@H](Cc2ccc(O)cc2)C(=O)N[C@H](CC(C)C)C(=O)N[C@H](CCC(=O)O)C(=O)N[C@H](C)C(=O)N[C@H](Cc2ccccc2)C(=O)N[C@H](Cc2cn(CCCC[C@H](NC(C)=O)C(=O)N[C@H](Cc3ccc(O)cc3)C(=O)N[C@H](CCCCN)C(=O)N[C@H](CO)C(=O)N[C@H](Cc3ccc(O)cc3)C(N)=O)nn2)C(=O)O)nn1)C(=O)O)C(C)C [triligand] (I: Ac-[Lys(N3)][dY][dL][dE][dA][dF][dPra]-OH / II: {Biotin-PEG6}-[dI][dV][dD][dA][dE][dPra]-OH / III: Ac-[Lys(N3)][dY][dK][dS][dY]-NH2; triazole I:1-II:6, I:7-III:1; N-terminus assumed)	does not show an affinity increase for the E17K protein	maintains the selectivity over the WT protein	exhibited the ability to block the PHD-PIP3 interaction, with the triligand being the most effective	significant selective inhibition of the E17K mutant relative to the WT	slight preference for E17K Akt1 relative to E17K Akt2
–	–	little inhibition of this protein	triligand 8: form of the ivdae-yleaf-yksy triligand used in PIP3 inhibition assays (peptide 1 {Biotin-PEG5′}-[dI][dV][dD][dA][dE]; peptide 2 [dY][dL][dE][dA][dF]; peptide 3 [dY][dK][dS][dY]; not fully specified (N-terminus, C-terminus); also: triazole to a chain's N/C-terminus via Pra/Lys(N3), triazole to a chain's N/C-terminus via Pra/Lys(N3))	–	–	decreased binding of the protein	significant inhibition	–
